What was measured:
Histamine H1 receptor [1] = biological target: Histamine H1 receptor (Cavia porcellus, UniProt P31389)
Histamine H1 receptor [2] = biological target: Histamine H1 receptor (Homo sapiens, UniProt P35367)
Sequence of Histamine H1 receptor (Homo sapiens, UniProt P35367) (P35367 whole entry): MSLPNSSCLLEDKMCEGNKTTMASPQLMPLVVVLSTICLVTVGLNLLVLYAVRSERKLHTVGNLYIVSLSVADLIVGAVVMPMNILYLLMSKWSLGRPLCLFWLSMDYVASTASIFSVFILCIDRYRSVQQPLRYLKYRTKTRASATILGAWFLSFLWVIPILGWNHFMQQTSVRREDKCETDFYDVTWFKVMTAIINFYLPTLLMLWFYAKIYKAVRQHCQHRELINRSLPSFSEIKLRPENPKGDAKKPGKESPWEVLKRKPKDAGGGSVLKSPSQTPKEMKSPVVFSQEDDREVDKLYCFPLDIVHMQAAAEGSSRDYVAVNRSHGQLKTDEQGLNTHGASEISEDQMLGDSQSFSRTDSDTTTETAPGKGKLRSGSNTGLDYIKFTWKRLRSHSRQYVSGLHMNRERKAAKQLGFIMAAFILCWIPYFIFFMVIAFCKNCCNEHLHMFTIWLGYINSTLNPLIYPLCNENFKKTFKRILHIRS

Sequence of Histamine H1 receptor (Cavia porcellus, UniProt P31389) (P31389 whole entry): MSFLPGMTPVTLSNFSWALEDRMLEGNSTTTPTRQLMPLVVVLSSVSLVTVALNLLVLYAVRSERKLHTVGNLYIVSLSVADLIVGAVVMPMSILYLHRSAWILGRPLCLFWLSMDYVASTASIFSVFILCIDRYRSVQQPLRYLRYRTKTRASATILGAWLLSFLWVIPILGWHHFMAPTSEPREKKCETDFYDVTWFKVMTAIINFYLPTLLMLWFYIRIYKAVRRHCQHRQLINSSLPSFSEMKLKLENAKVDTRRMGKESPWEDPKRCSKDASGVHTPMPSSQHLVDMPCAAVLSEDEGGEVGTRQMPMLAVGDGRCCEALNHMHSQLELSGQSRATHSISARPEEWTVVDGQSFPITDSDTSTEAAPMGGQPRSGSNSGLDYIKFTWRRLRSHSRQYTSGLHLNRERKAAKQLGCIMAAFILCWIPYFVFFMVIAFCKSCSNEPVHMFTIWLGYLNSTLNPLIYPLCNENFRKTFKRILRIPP

Structure (SMILES) | Ki (Histamine H1 receptor [1]) | Ki (Histamine H1 receptor [2])
NCCc1nccs1 [2-(2-aminoethyl)thiazole] | 8490 nM | 
NCCc1c[nH]c(-c2cccc(Cl)c2)n1 [2-(3-Chlorophenyl)histamine] | 600 nM | 1780 nM
NCCc1c[nH]c(-c2cccc(I)c2)n1 [2-(3-Iodophenyl)histamine] | 610 nM | 1760 nM
NCCc1c[nH]c(-c2cccc(Br)c2)n1 [2-[2-(3-bromophenyl)-1H-imidazol-4-yl]ethan-1-amine] | 700 nM | 2220 nM
N=C(NCCCc1c[nH]cn1)NCCC(c1cccc(Cl)c1)c1ccccn1 (stereo unspecified) [BU-E 47] | 53.9 nM | 255 nM
Cc1ccc(C(=CCN2CCCC2)c2ccccn2)cc1 [CAS_486-12-4] | 1.15 nM | 
NC(=NCCC(c1ccc(F)cc1)c1ccccn1)NCCCc1cnc[nH]1 (stereo unspecified) [CAS_65895] | 33.3 nM | 353 nM
CN(C)CCc1c[nH]c(CCC(c2ccccc2)c2ccccc2)n1 [N,N-Dimethyl-2-(3,3-diphenylpropyl)-1H-imidazole-4-(ethanamine)] | 310 nM | 400 nM
CNCCc1cnc(CCC(c2ccccc2)c2ccccc2)[nH]1 [N-Methyl-2-(3,3-diphenylpropyl)-1H-imidazole-4-(ethanamine)] | 290 nM | 370 nM

From BindingDB's records for doi:10.1124/jpet.103.049619 (University of Kansas, 2003)
